From patent publication US10385057B2, “Pyrazole compounds and methods of making and using same” (Lundbeck La Jolla Research Center, Inc., priority 2015, dated 2019)

Assays:
FAAH = biological target: T1, FAAH (Mus musculus, UniProt O08914); experiment: In vitro competitive activity-based protein profiling, mouse FAAH; format: biochemical; details: for inhibition at 1 µM: read-out: FAAH % inh. 1 μM (mouse)
T1 construct: mouse brain membrane fraction or cell lysates for mouse assays; from tissue
T1 sequence (O08914 1-579): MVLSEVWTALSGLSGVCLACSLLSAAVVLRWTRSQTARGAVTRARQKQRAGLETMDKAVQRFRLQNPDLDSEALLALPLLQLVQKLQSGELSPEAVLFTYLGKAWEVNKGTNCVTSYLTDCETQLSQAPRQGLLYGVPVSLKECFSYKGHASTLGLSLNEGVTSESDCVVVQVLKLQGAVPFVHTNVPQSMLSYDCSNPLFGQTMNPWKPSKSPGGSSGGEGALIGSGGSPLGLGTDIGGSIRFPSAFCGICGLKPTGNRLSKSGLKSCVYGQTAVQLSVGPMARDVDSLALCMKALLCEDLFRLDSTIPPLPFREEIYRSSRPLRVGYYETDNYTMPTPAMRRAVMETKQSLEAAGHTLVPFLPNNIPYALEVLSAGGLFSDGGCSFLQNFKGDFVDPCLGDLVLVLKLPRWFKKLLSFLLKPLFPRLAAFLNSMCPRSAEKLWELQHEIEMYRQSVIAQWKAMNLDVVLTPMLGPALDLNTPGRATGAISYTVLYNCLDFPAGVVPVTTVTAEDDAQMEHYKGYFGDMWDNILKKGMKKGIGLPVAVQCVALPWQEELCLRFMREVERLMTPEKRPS
Procedure: (§1) In Vitro Competitive Activity-Based Protein Profiling.
(§2) Proteomes (mouse brain membrane fraction or cell lysates for mouse assays; human prefrontal cortex or cell membrane fractions for human assays) (50 μL, 1.0 mg/mL total protein concentration) were preincubated with varying concentrations of inhibitors at 37° C. After 30 min, FP-Rh or HT-01 (1.0 μL, 50 μM in DMSO) was added and the mixture was incubated for another 30 min at 37° C. Reactions were quenched with SDS loading buffer (15 μL—4×) and run on SDS-PAGE. Following gel imaging, serine hydrolase activity was determined by measuring fluorescent intensity of gel bands corresponding to MAGL and FAAH using ImageJ 1.43u software.

MAGL = biological target: T2, MAGL (Mus musculus, UniProt O35678); experiment: In vitro competitive activity-based protein profiling, mouse MAGL; format: biochemical; details: for inhibition at 1 µM: read-out: MAGL % inh. 1 μM (mouse)
T2 construct: mouse brain membrane fraction or cell lysates for mouse assays; from tissue
T2 sequence (O35678 1-303): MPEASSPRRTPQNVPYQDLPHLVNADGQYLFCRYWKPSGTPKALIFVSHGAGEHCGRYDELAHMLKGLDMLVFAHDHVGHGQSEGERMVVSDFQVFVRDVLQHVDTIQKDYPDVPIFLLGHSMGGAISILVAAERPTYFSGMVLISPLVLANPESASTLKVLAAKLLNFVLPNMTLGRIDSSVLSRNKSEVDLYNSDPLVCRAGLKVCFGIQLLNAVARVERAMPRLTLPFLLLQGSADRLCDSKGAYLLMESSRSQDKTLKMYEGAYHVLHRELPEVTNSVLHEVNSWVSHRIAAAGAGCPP
Procedure: as §1, §2

Row | inhibition at 1 µM (FAAH) | inhibition at 1 µM (MAGL) | IC50 (FAAH) | IC50 (MAGL) | SMILES
1 | ≥ 75% | ≥ 75% | – | – | CN(Cc1ccc(Oc2ccccc2)cc1)[C@H]1C[C@@H]2CN(C(=O)n3cc(Cl)cn3)C[C@@H]2C1 [Example 159, (4-chloro-1H-pyrazol-1-yl)(trans-5-(methyl(4-phenoxybenzyl)amino)hexahydrocyclopenta[c]pyrrol-2(1H)-yl)methanone]
2 | ≥ 75% | 25 to 50% | – | – | O=C(c1cnn(C(=O)N2CCC3(CCN(Cc4cc(Cl)ccc4Cl)C3)C2)c1)N1CCCC1 (stereo not shown) [Example 28, (1-(7-(2,5-dichlorobenzyl)-2,7-diazaspiro[4.4]nonane-2-carbonyl)-1H-pyrazol-4-yl)(pyrrolidin-1-yl)methanone]
3 | 50 to 75% | ≥ 75% | 1000 to 10000 nM | ≤ 100 nM | CC(C)c1ccc(CN2CC3CN(C(=O)n4cc(Cl)cn4)CC3C2)c(N2CCOCC2)c1 (stereo not shown) [Example 106, (4-chloro-1H-pyrazol-1-yl)(5-(4-isopropyl-2-morpholinobenzyl)hexahydropyrrolo[3,4-c]pyrrol-2(1H)-yl)methanone]
4 | ≥ 75% | ≥ 75% | – | – | CNC(=O)c1cnn(C(=O)N2CCC3(CCN(Cc4ccc(N5CCOCC5)cc4C(F)(F)F)C3)C2)c1 (stereo not shown) [Example 49, N-methyl-1-(7-(4-morpholino-2-(trifluoromethyl)benzyl)-2,7-diazaspiro[4.4]nonane-2-carbonyl)-1H-pyrazole-4-carboxamide]
5 | ≥ 75% | ≥ 75% | 100 to 1000 nM | 100 to 1000 nM | O=C(N1CC2CN(Cc3ccc(N4CCOCC4)cc3)CC2C1)n1cc(Cl)cn1 (stereo not shown) [Example 125, (4-chloro-1H-pyrazol-1-yl)(5-(4-morpholinobenzyl)hexahydropyrrolo[3,4-c]pyrrol-2(1H)-yl)methanone]
6 | ≥ 75% | ≥ 75% | 100 to 1000 nM | 100 to 1000 nM | O=C(N1CCC2(CCN(Cc3ccc(F)cc3)C2)C1)n1cc(C(F)(F)F)cn1 (stereo not shown) [Example 166, (7-(4-fluorobenzyl)-2,7-diazaspiro[4.4]nonan-2-yl)(4-(trifluoromethyl)-1H-pyrazol-1-yl)methanone]
7 | ≥ 75% | ≥ 75% | – | – | O=C(N1CCC2(CCN(Cc3ccccc3F)C2)C1)n1cc(C(F)(F)F)cn1 (stereo not shown) [Example 177, (7-(2-fluorobenzyl)-2,7-diazaspiro[4.4]nonan-2-yl)(4-(trifluoromethyl)-1H-pyrazol-1-yl)methanone]
8 | ≥ 75% | ≥ 75% | ≤ 100 nM | ≤ 100 nM | O=C(N1CCC2(CCN(Cc3cccc(C(F)(F)F)c3)C2)C1)n1cc(C(F)(F)F)cn1 (stereo not shown) [Example 172, (4-(trifluoromethyl)-1H-pyrazol-1-yl)(7-(3-(trifluoromethyl)benzyl)-2,7-diazaspiro[4.4]nonan-2-yl)methanone]
9 | 50 to 75% | ≥ 75% | – | – | COc1ccccc1CN1CCC2(CCN(C(=O)n3cc(C(F)(F)F)cn3)C2)C1 (stereo not shown) [Example 179, (7-(2-methoxybenzyl)-2,7-diazaspiro[4.4]nonan-2-yl)(4-(trifluoromethyl)-1H-pyrazol-1-yl)methanone]
10 | ≥ 75% | ≥ 75% | – | – | O=C(c1cnn(C(=O)N2CC3CN(Cc4cc(Cl)cc(C(F)(F)F)c4)CC3C2)c1)N1CCN(C2CC2)CC1 (stereo not shown) [Example 11, (5-(3-chloro-5-(trifluoromethyl)benzyl)hexahydropyrrolo[3,4-c]pyrrol-2(1H)-yl)(4-(4-cyclopropylpiperazine-1-carbonyl)-1H-pyrazol-1-yl)methanone]
11 | ≥ 75% | ≥ 75% | 100 to 1000 nM | 100 to 1000 nM | O=C(N1CC2CN(Cc3ccc(CN4CCOCC4)cc3)CC2C1)n1cc(Cl)cn1 (stereo not shown) [Example 122, (4-chloro-1H-pyrazol-1-yl)(5-(4-(morpholinomethyl)benzyl)hexahydropyrrolo[3,4-c]pyrrol-2(1H)-yl)methanone]
12 | ≥ 75% | ≥ 75% | ≤ 100 nM | 100 to 1000 nM | Cc1cccc(CN2CCC3(CCN(C(=O)n4cc(C(F)(F)F)cn4)C3)C2)c1 (stereo not shown) [Example 170, (7-(3-methylbenzyl)-2,7-diazaspiro[4.4]nonan-2-yl)(4-(trifluoromethyl)-1H-pyrazol-1-yl)methanone]
13 | ≥ 75% | ≥ 75% | – | – | CN(Cc1cc(N2CCCC2)cc(C(F)(F)F)c1)[C@H]1C[C@@H]2CN(C(=O)n3cc(C(N)=O)cn3)C[C@@H]2C1 [Example 217, 1-(trans-5-(methyl(3-(pyrroldin-1-yl)-5-(trifluoromethyl)benzyl)amino)octahydrocyclopenta[c]pyrrole-2-carbonyl)-1H-pyrazole-4-carboxamide]
14 | ≥ 75% | ≥ 75% | – | – | CN(Cc1ccc(-c2nccs2)cc1C(F)(F)F)[C@@H]1C[C@@H]2CN(C(=O)n3cc(C(N)=O)cn3)C[C@@H]2C1 [Example 227, 1-(cis-5-(methyl(4-(thiazol-2-yl)-2-(trifluoromethyl)benzyl)amino)octahydrocyclopenta[c]pyrrole-2-carbonyl)-1H-pyrazole-4-carboxamide]
15 | ≥ 75% | ≥ 75% | ≤ 100 nM | ≤ 100 nM | COc1ccccc1CN1CC2CN(C(=O)n3cc(C(F)(F)F)cn3)CC2C1 (stereo not shown) [Example 154, (5-(2-methoxybenzyl)hexahydropyrrolo[3,4-c]pyrrol-2(1H)-yl)(4-(trifluoromethyl)-1H-pyrazol-1-yl)methanone]
16 | ≥ 75% | ≥ 75% | ≤ 100 nM | ≤ 100 nM | CN(Cc1cccc(C(F)(F)F)c1)[C@@H]1C[C@@H]2CN(C(=O)n3cc(Cl)cn3)C[C@@H]2C1 [Example 80, (4-chloro-1H-pyrazol-1-yl)(cis-5-(methyl(3-(trifluoromethyl)benzyl)amino)hexahydrocyclopenta[c]pyrrol-2(1H)-yl)methanone]
17 | ≥ 75% | ≥ 75% | – | – | CN(Cc1ccc(Cl)cc1)[C@H]1C[C@@H]2CN(C(=O)n3cc(Cl)cn3)C[C@@H]2C1 [Example 68, (4-chloro-1H-pyrazol-1-yl)(trans-5-((4-chlorobenzyl)(methyl)amino)hexahydrocyclopenta[c]pyrrol-2(1H)-yl)methanone]
18 | ≥ 75% | ≥ 75% | – | – | O=C(c1cnn(C(=O)N2CC3CN(Cc4ccc(N5CCOCC5)cc4C(F)(F)F)CC3C2)c1)N1CCOCC1 (stereo not shown) [Example 13, (4-(morpholine-4-carbonyl)-1H-pyrazol-1-yl)(5-(4-morpholino-2-(trifluoromethyl)benzyl)hexahydropyrrolo[3,4-c]pyrrol-2(1H)-yl)methanone]
19 | ≥ 75% | ≥ 75% | – | – | CC(=O)N1CCN(c2cc(Cl)ccc2CN2CC3CN(C(=O)n4cc(Cl)cn4)CC3C2)CC1 (stereo not shown) [Example 102, 1-(4-(5-chloro-2-((5-(4-chloro-1H-pyrazole-1-carbonyl)hexahydropyrrolo[3,4-c]pyrrol-2(1H)-yl)methyl)phenyl)piperazin-1-yl)ethan-1-one]
20 | ≥ 75% | 25 to 50% | ≤ 100 nM | 1000 to 10000 nM | O=C(c1cnn(C(=O)N2CC3CN(Cc4cccc(Oc5ccc(Cl)cc5)c4)CC3C2)c1)N1CCOCC1 (stereo not shown) [Example 199, (5-(3-(4-chlorophenoxy)benzyl)hexahydropyrrolo[3,4-c]pyrrol-2(1H)-yl)(4-(morpholine-4-carbonyl)-1H-pyrazol-1-yl)methanone]
